Source: patent US10294202B2, “Pyrrolidinones as herbicides” (FMC Corporation, priority 2013, dated 2019)

What was measured:
kochia [1] = test: Test A pre-/postemergence herbicide test; format: in vivo, Kochia scoparia
Outline: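 Both application timings used compounds in a non-phytotoxic solvent plus surfactant. Pre-emergence: soil sprayed directly after seeding into loam/sand. Post-emergence: foliage of 2–10 cm seedlings (1–2 leaves) sprayed. Injury rated ~10 days later, 0–100.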

blackgrass = test: Test A postemergence herbicide test; format: in vivo, Alopecurus myosuroides
Outline: (§1)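 Young potted plants in a loam–sand mix, one- to two-leaf stage and 2–10 cm tall, receive the test chemical postemergence and stay in a greenhouse for approximately 10 days. Injury is then judged by eye against untreated plants, scored 0 (none) to 100 (complete control).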

galium = test: Test A postemergence herbicide test; format: in vivo, Galium aparine; details: for Plant response rating, Galium: 125 g ai/ha; for Galium plant response rating (0 to 100 scale, 0 is no effect, 100 is complete control): 500 g ai/ha
Outline: as §1

kochia [2] = test: Test C pre-/postemergence herbicide test; format: in vivo, Kochia scoparia; details: Postemergence
Outline: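 Herbicidal effect was judged by eye 13 to 15 days after treatment in the greenhouse, using a 0–100 scale against controls. Chemicals in a non-phytotoxic solvent with surfactant were sprayed onto planted loam/sand soil or onto plants 2 to 18 cm tall in a peat-based growing medium.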

sedge, umbrella = test: Test C flooded paddy test; format: in vivo, Cyperus difformis; details: Flood
Outline: (§2)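 Ratings reflect visual comparison with controls on a 0–100 scale, where 100 is complete control. Compound is dosed into standing paddy water 3 cm deep over 2-leaf-stage plants, kept in the greenhouse 13 to 15 days.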

ducksalad = test: Test C flooded paddy test; format: in vivo, Heteranthera limosa; details: Flood
Outline: as §2

barnyardgrass = test: Test C flooded paddy test; format: in vivo, Echinochloa crus-galli; details: Flood
Outline: as §2

[3] = 125 g ai/ha, visual rating, 0 to 100 scale, 0 no effect, 100 complete control, approximately 10 days, preemergence
[4] = Postemergence, 125 g ai/ha, 0 to 100 scale, 0 is no effect, 100 is complete control
[5] = preemergence, 500 g ai/ha, 0 to 100 scale, 0 is no effect and 100 is complete control
[6] = 125 g ai/ha, 0 to 100 scale, 0 is no effect, 100 is complete control
[7] = 0 to 100 scale, 0 is no effect, 100 is complete control
[8] = 31 g ai/ha, scale 0 to 100 (0 no effect, 100 complete control)
[9] = 62 g ai/ha, scale 0 (no effect) to 100 (complete control)
[10] = 125 g ai/ha, scale 0 to 100 (0 no effect, 100 complete control)
[11] = 250 g ai/ha, scale 0 to 100 (0 no effect, 100 complete control)
[12] = 125 g ai/ha, scale of 0 to 100 where 0 is no effect and 100 is complete control, 13 to 15 days
[13] = 250 g ai/ha, scale of 0 to 100 where 0 is no effect and 100 is complete control, 13 to 15 days
[14] = 31 g ai/ha, scale of 0 to 100 where 0 is no effect and 100 is complete control, 13 to 15 days
[15] = 62 g ai/ha, scale of 0 to 100 where 0 is no effect and 100 is complete control, 13 to 15 days

SMILES | Plant response rating, Kochia (kochia [1]; [3]) | Plant response rating, Kochia (kochia [1]; [4]) | Kochia plant response rating (0 to 100 scale, 0 is no effect, 100 is complete control) (kochia [1]; Postemergence, 500 g ai/ha) | Plant response rating, Kochia (kochia [1]; [5]) | Plant response rating, Blackgrass (blackgrass; [6]) | Blackgrass plant response rating (0 to 100 scale, 0 is no effect, 100 is complete control) (blackgrass; 500 g ai/ha) | Plant response rating, Galium (galium; [7]) | Galium plant response rating (0 to 100 scale, 0 is no effect, 100 is complete control) (galium) | Plant response rating, Kochia (kochia [2]; [8]) | Plant response rating, Kochia (kochia [2]; [9]) | Plant response rating, Kochia (kochia [2]; [10]) | Plant response rating, Kochia (kochia [2]; [11]) | Plant response rating, Sedge, Umbrella (sedge, umbrella; [12]) | Plant response rating, Sedge, Umbrella (sedge, umbrella; [13]) | Plant response rating, Sedge, Umbrella (sedge, umbrella; 500 g ai/ha, scale 0 to 100) | Plant response rating, Sedge, Umbrella (sedge, umbrella; 1000 g ai/ha, scale 0 to 100) | Plant response rating, Ducksalad (ducksalad; [12]) | Plant response rating, Ducksalad (ducksalad; [13]) | Plant response rating, Barnyardgrass (barnyardgrass; [12]) | Plant response rating, Barnyardgrass (barnyardgrass; [13]) | other results
O=C1NC[C@H](c2cccc(C(F)(F)F)c2)[C@H]1C(=O)Nc1cccc(F)c1F [Compound 206] | 70 | 70 | 70 | 80 | 70 | 80 | 70 | 80 | 50 | 70 | 30 | 70 | 0 | 0 | 0 | 0 | 90 | 100 | 35 | 60 | Plant response rating, Ducksalad (ducksalad; 500 g ai/ha, scale 0 to 100): 100; Plant response rating, Ducksalad (ducksalad; 1000 g ai/ha, scale 0 to 100): 100; Plant response rating, Barnyardgrass (barnyardgrass; 500 g ai/ha, scale 0 to 100): 75; Plant response rating, Barnyardgrass (barnyardgrass; 1000 g ai/ha, scale 0 to 100): 85
O=C1NCC(c2cccc(OC(F)F)c2)C1C(=O)Nc1cccc(F)c1F (stereo not shown) [Compound 224] | 80 | 80 | 90 | 90 | 60 | 70 | 70 | 70 | 0 | 40 | 50 | 70 | 0 | 0 |  |  | 80 | 100 | 40 | 60 | Plant response rating, Sedge, Umbrella (sedge, umbrella; [14]): 0; Plant response rating, Sedge, Umbrella (sedge, umbrella; [15]): 0; Plant response rating, Ducksalad (ducksalad; [14]): 0; Plant response rating, Ducksalad (ducksalad; [15]): 40; Plant response rating, Barnyardgrass (barnyardgrass; [14]): 0; Plant response rating, Barnyardgrass (barnyardgrass; [15]): 20
O=C1NCC(c2ccc(F)c(F)c2)C1C(=O)Nc1ccc(F)c(F)c1F (stereo not shown) [Compound 346] |  |  |  |  |  |  |  |  | 45 | 50 | 45 | 40 | 0 | 0 | 0 | 0 | 95 | 100 | 30 | 45 | Plant response rating, Kochia (kochia [1]; Postemergence, 125 g ai/ha, visual rating on 0 to 100 scale (0 no effect, 100 complete control), approx. 10 days): 0; Plant response rating, Kochia (kochia [1]; Preemergence, 125 g ai/ha, 0 to 100 scale where 0 is no effect and 100 is complete control): 0; Kochia plant response rating (kochia [1]; Preemergence, 500 g ai/ha, visual rating on 0 to 100 scale (0 no effect, 100 complete control)): 80; Plant response rating, Blackgrass (blackgrass; 125 g ai/ha, visual rating on 0 to 100 scale (0 no effect, 100 complete control), approx. 10 days): 20; Plant response rating, Blackgrass (blackgrass; 500 g ai/ha, 0 to 100 scale (0 no effect, 100 complete control)): 50; Plant response rating, Galium (galium; visual rating on 0 to 100 scale (0 no effect, 100 complete control), approx. 10 days): 30; Plant response rating, Ducksalad (ducksalad; 500 g ai/ha, scale 0 to 100): 100; Plant response rating, Ducksalad (ducksalad; 1000 g ai/ha, scale 0 to 100): 100; Plant response rating, Barnyardgrass (barnyardgrass; 500 g ai/ha, scale 0 to 100): 65; Plant response rating, Barnyardgrass (barnyardgrass; 1000 g ai/ha, scale 0 to 100): 70
